Results reported in patent US20040106687A1, “Carotenoids as anti-hypertension agents” (priority 2001, published 2004).

System: healthy young individuals
Assay: Double-blind, placebo-controlled crossover study of lycopene consumption, heart rate and blood pressure measured
Format: in vivo, human
Description: A double-blind, placebo-controlled crossover study of lycopene consumption in 16 healthy young individuals. Each subject was studied at baseline and then given 15 mg lycopene or placebo for two weeks and re-evaluated. A one-month lycopene administration free washout period followed, another lycopene administration was administered prior to a final evaluation. Each evaluation included measures among other parameters also heart rate and blood pressure. […]

[1] = 16 healthy young individuals, 15 mg lycopene for two weeks

SMILES: CC(C)=CCC/C(C)=C/C=C/C(C)=C/C=C/C(C)=C/C=C/C=C(C)/C=C/C=C(C)/C=C/C=C(\C)CCC=C(C)C [Lycopene, lycopene]
- Diastolic Blood Pressure [1]: 66 ± 2 mmHg
- Systolic Blood Pressure [1]: 114 ± 2 mmHg
- Change in diastolic blood pressure as compared to placebo administration (during lycopene administration, 15 mg for two weeks, p<0.05): significant reduction
